Source: patent US10603322B2, “Therapeutic targeting of casein kinase 1δ in breast cancer” (The Scripps Research Institute, priority 2015, dated 2020)

Experiments:
[1] = test system: β-catenin; assay: β-catenin expression by immunoblot in breast cancer cells; format: cell-based, human; settings: 18 hr
Procedure: SDS-PAGE gel electrophoresis was performed using NuPAGE 4-12% Bis-Tris gels (Invitrogen) and transferred to PVDF membranes by semi-dry transfer using trans-blot transfer medium (Biorad). Membranes were blocked in Odyssey blocking buffer (LI-COR Biosciences) and incubated overnight at 4° C. with primary antibodies. After repeated washes with TBST (20 mM Tris, pH 7.6, 140 mM NaCl and 0.1% Tween-20) blots were incubated with the appropriate IRDye-conjugated secondary antibody (LI-COR Biosciences) and imaged using the LI-COR Odyssey. Bands were quantified using the Odyssey software (LI-COR Biosciences). The following antibodies were used in this study: CK1δ and Histone H4 (Abcam), CK1ε, c-Myc (9E10), Cyclin-D1 and β-actin (Santa Cruz), β-catenin (Cell Signaling), GAPDH (Millipore) and CD44 (R&D Systems).

[2] = test system: MDA-MB-231 TNBC cells; assay: Cell proliferation / growth assay; format: cell-based, human; settings: forced expression of β-catenin-S33Y or β-catenin N90; 72 hr

Fc1cccc(-n2cnc3c(NCc4nc5ccc(F)c(F)c5[nH]4)nc(N4CCOCC4)nc32)c1 [SR-3029]
expression of the active, nuclear pool of β-catenin ([1]; MDA-MB-231, MDA-MB-436, MDA-MB-468 and BT474 cells, 30 nM): markedly reduced | unphosphorylated, active form of β-catenin (ABC) ([1]; MDA-MB-231 cells): reduction | growth inhibitory and apoptotic effects with constitutively active β-catenin [2]: sufficient to rescue the growth inhibitory and apoptotic effects
